{
  "source": "ChEMBL document CHEMBL1201862",
  "about": "“PubChem BioAssay data set” (2004)",
  "assay_in_all_cases": "inhibition of tumour cell growth, NCI panel, 48 h",
  "key": {"[1]": {"system": "SK-MEL-28"}, "[2]": {"system": "Malme-3M"}, "[3]": {"system": "MDA-N"}, "[4]": {"system": "SNB-78"}, "[5]": {"system": "SF-295"}, "[6]": {"system": "SN12C"}, "[7]": {"system": "SNB-75"}, "[8]": {"system": "HCC 2998"}, "[9]": {"system": "UACC-257"}, "[10]": {"system": "HOP-92"}, "[11]": {"system": "RXF 393"}, "[12]": {"system": "SK-OV-3"}, "[13]": {"system": "UO-31"}, "[14]": {"system": "SF-268"}, "[15]": {"system": "OVCAR-4"}, "[16]": {"system": "TK-10"}, "[17]": {"system": "NCI/ADR-RES"}, "[18]": {"system": "DU-145"}, "[19]": {"system": "RPMI-8226"}, "[20]": {"system": "T47D"}, "[21]": {"system": "NCI-H226"}, "[22]": {"system": "IGROV-1"}, "[23]": {"system": "HCT-15"}, "[24]": {"system": "HOP-62"}, "[25]": {"system": "U-251"}, "[26]": {"system": "UACC-62"}, "[27]": {"system": "OVCAR-3"}, "[28]": {"system": "SW-620"}, "[29]": {"system": "EKVX"}, "[30]": {"system": "SK-MEL-2"}, "[31]": {"system": "BT-549"}, "[32]": {"system": "NCI-H23"}, "[33]": {"system": "DMS-114"}, "[34]": {"system": "SK-MEL-5"}, "[35]": {"system": "SNB-19"}, "[36]": {"system": "KM12"}, "[37]": {"system": "NCI-H460"}, "[38]": {"system": "786-0"}, "[39]": {"system": "HL-60"}, "[40]": {"system": "MDA-MB-231"}, "[41]": {"system": "ACHN"}, "[42]": {"system": "M19-MEL"}, "[43]": {"system": "NCI-H522"}, "[44]": {"system": "MCF7"}, "[45]": {"system": "HOP-18"}, "[46]": {"system": "COLO 205"}, "[47]": {"system": "DLD-1"}, "[48]": {"system": "DMS-273"}, "[49]": {"system": "MOLT-4"}, "[50]": {"system": "HT-29"}, "[51]": {"system": "LXFL 529"}, "[52]": {"system": "XF498"}, "[53]": {"system": "HCT-116"}, "[54]": {"system": "OVCAR-5"}, "[55]": {"system": "K562"}, "[56]": {"system": "MDA-MB-435"}, "[57]": {"system": "A549"}, "[58]": {"system": "M14"}, "[59]": {"system": "Hs-578T"}, "[60]": {"system": "KM-20L2"}, "[61]": {"system": "SF-539"}, "[62]": {"system": "CCRF-CEM"}, "[63]": {"system": "LOX IMVI"}, "[64]": {"system": "A498"}, "[65]": {"system": "OVCAR-8"}, "[66]": {"system": "CAKI-1"}, "[67]": {"system": "PC-3"}},
  "note": "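Assay format: 96-well plates, 48-hour exposure. GI50: concentration for 50% inhibition of growth.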 Activity calls are given as the source filed them. Rule as the data show it: active = GI50 up to about 1.1 µM and inactive = higher.",
  "data": [
    {"smiles": "CN(C)CCNc1ccc2ncn3c4ccc(O)cc4c(=O)c1c23", "values": [
      {"measurement": "GI50", "setting": "[1]", "result": "4530 nM (inactive)"},
      {"measurement": "GI50", "setting": "[2]", "result": "2640 nM (inactive)"},
      {"measurement": "GI50", "setting": "[3]", "result": "2880 nM (inactive)"},
      {"measurement": "GI50", "setting": "[4]", "result": "3030 nM (inactive)"},
      {"measurement": "GI50", "setting": "[5]", "result": "1390 nM (inactive)"},
      {"measurement": "GI50", "setting": "[6]", "result": "562 nM (active)"},
      {"measurement": "GI50", "setting": "[7]", "result": "404 nM (active)"},
      {"measurement": "GI50", "setting": "[8]", "result": "2120 nM (inactive)"},
      {"measurement": "GI50", "setting": "[9]", "result": "5740 nM (inactive)"},
      {"measurement": "GI50", "setting": "[10]", "result": "2540 nM (inactive)"},
      {"measurement": "GI50", "setting": "[11]", "result": "617 nM (active)"},
      {"measurement": "GI50", "setting": "[12]", "result": "1290 nM (inactive)"},
      {"measurement": "GI50", "setting": "[13]", "result": "845 nM (active)"},
      {"measurement": "GI50", "setting": "[14]", "result": "893 nM (active)"},
      {"measurement": "GI50", "setting": "[15]", "result": "1040 nM (active)"},
      {"measurement": "GI50", "setting": "[16]", "result": "2660 nM (inactive)"},
      {"measurement": "GI50", "setting": "[17]", "result": "3000 nM (inactive)"},
      {"measurement": "GI50", "setting": "[18]", "result": "315 nM (active)"},
      {"measurement": "GI50", "setting": "[19]", "result": "735 nM (active)"},
      {"measurement": "GI50", "setting": "[20]", "result": "10200 nM (inactive)"},
      {"measurement": "GI50", "setting": "[21]", "result": "476 nM (active)"},
      {"measurement": "GI50", "setting": "[22]", "result": "1090 nM (active)"},
      {"measurement": "GI50", "setting": "[23]", "result": 714, "unit": "nM"},
      {"measurement": "GI50", "setting": "[24]", "result": "153 nM (active)"},
      {"measurement": "GI50", "setting": "[25]", "result": "214 nM (active)"},
      {"measurement": "GI50", "setting": "[26]", "result": "3440 nM (inactive)"},
      {"measurement": "GI50", "setting": "[27]", "result": "3040 nM (inactive)"},
      {"measurement": "GI50", "setting": "[28]", "result": "281 nM (active)"},
      {"measurement": "GI50", "setting": "[29]", "result": "5220 nM (inactive)"},
      {"measurement": "GI50", "setting": "[30]", "result": "3790 nM (inactive)"},
      {"measurement": "GI50", "setting": "[31]", "result": "14200 nM (inactive)"},
      {"measurement": "GI50", "setting": "[32]", "result": "614 nM (active)"},
      {"measurement": "GI50", "setting": "[33]", "result": "526 nM (active)"},
      {"measurement": "GI50", "setting": "[34]", "result": "714 nM (active)"},
      {"measurement": "GI50", "setting": "[35]", "result": "920 nM (active)"},
      {"measurement": "GI50", "setting": "[36]", "result": "1950 nM (inactive)"},
      {"measurement": "GI50", "setting": "[37]", "result": "87.1 nM (active)"},
      {"measurement": "GI50", "setting": "[38]", "result": "612 nM (active)"},
      {"measurement": "GI50", "setting": "[39]", "result": "647 nM (active)"},
      {"measurement": "GI50", "setting": "[40]", "result": "1670 nM (inactive)"},
      {"measurement": "GI50", "setting": "[41]", "result": "158 nM (active)"},
      {"measurement": "GI50", "setting": "[42]", "result": "1090 nM (active)"},
      {"measurement": "GI50", "setting": "[43]", "result": "409 nM (active)"},
      {"measurement": "GI50", "setting": "[44]", "result": "83.2 nM (active)"},
      {"measurement": "GI50", "setting": "[45]", "result": "10600 nM (inactive)"},
      {"measurement": "GI50", "setting": "[46]", "result": "698 nM (active)"},
      {"measurement": "GI50", "setting": "[47]", "result": "1080 nM (active)"},
      {"measurement": "GI50", "setting": "[48]", "result": "317 nM (active)"},
      {"measurement": "GI50", "setting": "[49]", "result": "25.8 nM (active)"},
      {"measurement": "GI50", "setting": "[50]", "result": "1060 nM (active)"},
      {"measurement": "GI50", "setting": "[51]", "result": "1410 nM (inactive)"},
      {"measurement": "GI50", "setting": "[52]", "result": "4130 nM (inactive)"},
      {"measurement": "GI50", "setting": "[53]", "result": "272 nM (active)"},
      {"measurement": "GI50", "setting": "[54]", "result": "3380 nM (inactive)"},
      {"measurement": "GI50", "setting": "[55]", "result": "762 nM (active)"},
      {"measurement": "GI50", "setting": "[56]", "result": "2410 nM (inactive)"},
      {"measurement": "GI50", "setting": "[57]", "result": "66.1 nM (active)"},
      {"measurement": "GI50", "setting": "[58]", "result": "1630 nM (inactive)"},
      {"measurement": "GI50", "setting": "[59]", "result": "1180 nM (inactive)"},
      {"measurement": "GI50", "setting": "[60]", "result": "2380 nM (inactive)"},
      {"measurement": "GI50", "setting": "[61]", "result": "460 nM (active)"},
      {"measurement": "GI50", "setting": "[62]", "result": "171 nM (active)"},
      {"measurement": "GI50", "setting": "[63]", "result": "543 nM (active)"},
      {"measurement": "GI50", "setting": "[64]", "result": "745 nM (active)"},
      {"measurement": "GI50", "setting": "[65]", "result": "646 nM (active)"},
      {"measurement": "GI50", "setting": "[66]", "result": "224 nM (active)"},
      {"measurement": "GI50", "setting": "[67]", "result": "1420 nM (inactive)"}
    ]}
  ]
}
